According to ChEMBL document CHEMBL1208667, “Permanent positive charge strongly influences DNA/RNA binding and antiproliferative activity of urea-phenanthridinium conjugates” (Eur J Med Chem, 2010):
Active and inactive are the calls of the source. No cut-off for these calls is given here.

What was measured:
Type in all cases: functional, cell-based
Caco-2 [1] = test: Cytotoxicity against human Caco-2 cells at 100 uM after 72 hrs by MTT assay
Caco-2 [2] = test: Cytotoxicity against human Caco-2 cells at 0.1 to 100 uM after 72 hrs by MTT assay
MIA PaCa-2 = test: Cytotoxicity against human MIAPaCa2 cells at 0.1 to 100 uM after 72 hrs by MTT assay
HEp-2 = test: Cytotoxicity against human Hep2 cells at 0.1 to 100 uM after 72 hrs by MTT assay
HeLa = test: Cytotoxicity against human HeLa cells at 0.1 to 100 uM after 72 hrs by MTT assay
HT-29 = test: Cytotoxicity against human HT-29 cells at 0.1 to 100 uM after 72 hrs by MTT assay

| Structure (SMILES) | Activity (Caco-2 [1]) | Activity (Caco-2 [2]) | Activity (MIA PaCa-2) | Activity (HEp-2) | Activity (HeLa) | Activity (HT-29) |
| --- | --- | --- | --- | --- | --- | --- |
| Cc1nc2ccccc2c2ccc(NC(=O)NCCCCCCNC(=O)Nc3ccc4c(c3)c(C)nc3ccccc34)cc12 | inactive | – | – | – | – | – |
| Cc1nc2ccccc2c2ccc(NC(=O)NCCCCCCCCCNC(=O)Nc3ccc4c(c3)c(C)nc3ccccc34)cc12 | inactive | inactive | inactive | inactive | inactive | inactive |
| Cc1nc2ccccc2c2ccc(NC(=O)NCCNC(=O)Nc3ccc4c(c3)c(C)nc3ccccc34)cc12 | inactive | – | – | – | – | – |
